# Key:
# Format in all cases: cell-based, human
# HCT116 cells [1] = assay: ChIP assay with anti-dimethyl-histone H3(lys9) antibody in treated HCT116 cells, real-time PCR; conditions: relative to untreated cells; for methylation of H3-K9 histones associated with the p21 CpG island promoter region: FIG. 17a; for methylation of H3-K9 histones associated with the unmethylated genes (DDX18, INSIG2, PTPN, RALBB): FIG. 17g-k; for binding of methylated K9-H3 histones to DNA methylated genes (EN1, SCTR, INHBB, GLI2, MARCO): FIGS. 17b-f
# Protocol: ChIP assays were carried out according to the manufacturer (Upstate Biotechnology) and described in Stirzaker et al., Cancer Res 64: 3871-3877, 2004. Briefly, 1×10^6 HCT116 cells, in a 10 cm dish, were fixed by adding formaldehyde at a final concentration of 1% and incubating for 10 minutes at 37° C. The cells were washed twice with ice cold PBS containing protease inhibitors (1 mM phenylmethylsulfonyl fluoride (PMSF), 1 μg/ml aprotinin and 1 μg/ml pepstatin A), harvested and treated with SDS lysis buffer for 10 min on ice. The resulting lysates were sonicated to shear the DNA to fragment lengths of 200 to 500 basepairs. […] No antibody controls were also included for each ChIP assay and no precipitation was observed. The antibody/protein complexes were collected by salmon sperm DNA/protein A agarose slurry and washed several times following the manufacturer's instructions. The immune complexes were eluted with 1% SDS and 0.1 M NaHCO3 and the crosslinks were reversed by incubation at 65° C. for 4 hours in the presence of 200 mM NaCl. The samples were treated with proteinase K for 1 hour and the DNA was purified by phenol/chloroform extraction, ethanol precipitation and resuspended in 30 μl H2O. The amount of target that was immunoprecipitated, was measured by Real-Time PCR using the ABI Prism 7900HT Sequence Detection System. Amplification primers are set forth SEQ ID NOs: 235 to 256. PCR reactions were set up according to the SDS compendium (ver 2.1) for the 7900HT Applied Biosystems Sequence Detector as described previously (Stirzaker, supra). Either immunoprecipitated DNA, no-antibody control or input chromatin were used in each PCR and the PCRs were set up in triplicate. Standard deviation was calculated using the Comparative method (ABI PRISM 7700 Sequence Detection System User Bulletin #2, […] 4303859). For each sample an average CT value was obtained for immunoprecipitated material and for the input chromatin. The difference in CT values (delta CT) reflects the difference in the amount of material that was immunoprecipitated relative to the amount of input (ABI PRISM 7700 Sequence Detection system User Bulletin #2, […] 4303859). To determine if chromatin modification was associated with the suppression of all the genes across the entire band in cancer, regardless of the DNA methylation status, ChIP (chromatin immunoprecipitation) analysis and real-time PCR was performed.
# HCT116 cells [2] = assay: Real-time RT-PCR gene expression in HCT116 cells treated with 5-Aza-2′-deoxycytidine and/or TSA; conditions: for expression of CpG island-associated genes that are unmethylated and transcriptionally repressed: DDX18, INSIG2, PTPN, RALBB, TSN, FIG. 16g-k; for expression of genes hypermethylated in HCT116 (EN1, SCTR and INHBB): genes linked to 2q14.2, FIG. 16b, c and d
# Protocol: RNA was extracted using Trizol reagent (Invitrogen) according to the manufacturer's protocol. cDNA was reverse transcribed from 2 μg of total RNA using SuperScriptTM III RNase H^- Reverse Transcriptase (Invitrogen Life technologies), according to the manufacturer's instructions. The reaction was primed with 200 ng of random hexamers (Roche). The reverse transcription reaction was then diluted 1:20 with sterile H2O before addition to a PCR reaction. […] The primers used for amplification comprise a sequence set forth in any one of SEQ ID Nos 119 to 218. Primers were used in a combination described herein. To control for the amount and integrity of the RNA, the Human 18S ribosomal RNA (rRNA) kit (P/N 4308329) (Applied Biosystems), containing the rRNA forward and reverse primers and rRNA VICTM probe, was used. 5 μl of the reverse transcription was used in a 20 μl reaction in TaqMan Universal PCR Master Mix (P/N 4304437) with 1 μl of the 20× Human 18S rRNA mix. The reactions were performed in triplicate and the standard deviation was calculated using the Comparative method (ABI PRISM 7700 Sequence Detection system User Bulletin #2, […] 4303859). The cycle number corresponding to where the measured fluorescence crosses a threshold is […] to the amount of starting material. The mean expression levels are represented as the ratio between each gene and 18S rRNA expression. The colon cancer cell line HCT116 was cultured in D-MEM/F12 (Gibco/BRL) medium supplemented with MEM sodium pyruvate and L-Glutamine and 10% fetal calf serum at 37° C. with 10% CO2. Cells were split 1:8 every 3-4 days. Cells were split 12 h to 24 h prior to treatment. 5-Aza-2'-deoxycytidine (5-aza-dC)(Sigma) was prepared as a 1 mg/ml stock in sterile water, filter-sterilized and frozen as aliquots. 100 mm tissue culture dishes were seeded with 0.5×10^6 cells and following 24 h incubation the cells were treated with 0.5 μm 5-aza-dC. The cells were treated for 24 hours after which the medium was replaced with fresh medium and the cells cultured for a further 48 h before harvesting. Cells were treated with trichostatin A (TSA) (Sigma) at 25, 50 and 100 nM for 24 h. Alternatively, an identical volume of ethanol was used as a control. For co-treatment of cells with 5-aza-dC and TSA, 5-aza-dC was added initially for 24 h, after which it was removed and TSA was added for a further 24 h. The concentrations and the treatment conditions used were chosen based on preliminary studies showing optimal reactivation of gene expression. Expression levels of the genes DDX18, INSIG2, EN1, MARCO, PTPN4, RALBB, GLI2 and TSN was determined essentially as described above.
# HCT116 cells [3] = assay: ChIP assay with anti-acetylated histone antibody in treated HCT116 cells, real-time PCR; conditions: relative to untreated cells, FIG. 18
# Protocol: ChIP assays were carried out according to the manufacturer (Upstate Biotechnology) and described in Stirzaker et al., Cancer Res 64: 3871-3877, 2004. Briefly, ˜1×10^6 HCT116 cells, in a 10 cm dish, were fixed by adding formaldehyde at a final concentration of 1% and incubating for 10 minutes at 37° C. The cells were washed twice with ice cold PBS containing protease inhibitors (1 mM phenylmethylsulfonyl fluoride (PMSF), 1 μg/ml aprotinin and 1 μg/ml pepstatin A), harvested and treated with SDS lysis buffer for 10 min on ice. The resulting lysates were sonicated to shear the DNA to fragment lengths of 200 to 500 basepairs. The complexes were immunoprecipitated with an antibody specific for dimethyl-histone H3(lys9), Upstate Biotechnology (#07-212) or acetylated histone. […]
# The amount of target that was immunoprecipitated, was measured by Real-Time PCR using the ABI Prism 7900HT Sequence Detection System. […] Standard deviation was calculated using the Comparative method (ABI PRISM 7700 Sequence Detection System User Bulletin #2, 1997 (P/N 4303859). For each sample an average CT value was obtained for immunoprecipitated material and for the input chromatin. The difference in CT values (delta CT) reflects the difference in the amount of material that was immunoprecipitated relative to the amount of input (ABI PRISM 7700 Sequence Detection system User Bulletin #2, 1997 (P/N 4303859).
Compound,methylation of H3-K9 histones associated with the p21 CpG island promoter region (HCT116 cells [1]),"methylation of H3-K9 histones associated with the unmethylated genes (DDX18, INSIG2, PTPN, RALBB) (HCT116 cells [1])","binding of methylated K9-H3 histones to DNA methylated genes (EN1, SCTR, INHBB, GLI2, MARCO) (HCT116 cells [1])",expression of CpG island-associated genes that are unmethylated and transcriptionally repressed (HCT116 cells [2]),"expression of genes hypermethylated in HCT116 (EN1, SCTR and INHBB) (HCT116 cells [2])",H3-K9 acetylation for genes hypermethylated in HCT116 cells (HCT116 cells [3]),"p21 expression activated (control gene) (HCT116 cells [2]; 0.5 μm 5-aza-dC 24 h, TSA 24 h, co-treatment 5-aza-dC 24 h then TSA 24 h, normalised to 18S RNA, FIG. 16a)"
"Nc1ncn([C@H]2C[C@H](O)[C@@H](CO)O2)c(=O)n1 [5AzaC, 5-Aza-2′-deoxycytidine]",Demethylation of the H3-K9 histones also occurred,resulted in demethylation,binding was reduced,some reactivation,small increases of expression,,
"CC(/C=C/C(=O)NO)=C\[C@@H](C)C(=O)c1ccc(N(C)C)cc1 [TSA, trichostatin A]",substantial demethylation,substantial demethylation,binding was reduced,some reactivation,small increases of expression,Increased H3-K9 acetylation,more than 3 fold

# From US9157122B2, “Method of diagnosing cancer and reagents therefor” (Garvan Institute of Medical Research, priority 2004, dated 2015)
